Source: BindingDB's records for doi:10.7270/Q2VX0F3D (Burnham Center For Chemical Genomics, 2012)

Biological target: T1, Corticotropin-releasing factor-binding protein (Homo sapiens, UniProt P24387)
T1 sequence (P24387 whole entry): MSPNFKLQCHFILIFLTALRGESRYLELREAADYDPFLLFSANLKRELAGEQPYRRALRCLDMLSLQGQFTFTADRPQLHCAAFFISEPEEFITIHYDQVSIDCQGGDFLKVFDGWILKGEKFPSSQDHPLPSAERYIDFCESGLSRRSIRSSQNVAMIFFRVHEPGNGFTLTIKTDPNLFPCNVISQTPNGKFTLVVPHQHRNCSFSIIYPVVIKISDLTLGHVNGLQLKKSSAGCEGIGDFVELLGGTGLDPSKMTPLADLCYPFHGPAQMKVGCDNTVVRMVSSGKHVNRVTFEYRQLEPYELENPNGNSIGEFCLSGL
Assay: activators of CRF receptor 2 with binding protein – uHTS hits, confirmation (AID 602473)

Cc1cc2c(cc1C)NC(c1c(C)n(C)n(-c3ccccc3)c1=O)C1C(=O)CC(C)(C)CC1=N2 (configuration not stated)
EC50: > 53 µM

Nc1[nH]c(=O)sc1C=C1C=CC(=O)C=C1 [MLS000697264]
EC50: > 53 µM

O=C(c1ccccc1)c1[nH]n(-c2ccccc2)c2c(O)n(-c3ccccc3)c(=O)c1-2 [3-benzoyl-1,5-diphenyl-3a,6a-dihydropyrrolo[3,4-c]pyrazole-4,6-dione]
EC50: 14.6 µM

Nc1ccc2c(c1)C(N=O)c1ccccc1-2 (configuration not stated) [SMR001570622]
EC50: > 53 µM

CC1=CC(C)(C(Cl)(Cl)Cl)C(C)C=C1N=O (configuration not stated)
EC50: > 53 µM

Oc1ccc(CN=Nc2nc(N3CCCCCC3)nc(N3CCCCCC3)n2)c(O)c1 [2,4-dihydroxybenzaldehyde (4,6-diazepan-1-yl-1,3,5-triazin-2-yl)hydrazone]
EC50: > 53 µM

O=c1cc(Nc2cc(O)n(-c3ccccc3Cl)c2O)[nH]c(=O)[nH]1 [6-[[1-(2-chlorophenyl)-2,5-dioxopyrrolidin-3-yl]amino]-1H-pyrimidine-2,4-dione]
EC50: > 53 µM

CCOc1ccc(C2=Nc3ncnn3C(c3ccccc3)C2)cc1 (configuration not stated)
EC50: > 53 µM

COC(=O)Cc1sc(=O)[nH]c1Nc1ccc(OC)cc1 [methyl {4-[(4-methoxyphenyl)imino]-2-oxo-1,3-thiazolidin-5-yl}acetate]
EC50: > 53 µM

Cc1ccc(C2CC(c3ccccc3)=Nc3nc(-n4c(O)ccc4O)nn32)cc1 (configuration not stated) [1-[7-(4-methylphenyl)-5-phenyl-1,7-dihydro-[1,2,4]triazolo[1,5-a]pyrimidin-2-yl]pyrrolidine-2,5-dione]
EC50: > 53 µM

CCC(C)(C)NC(=O)C(c1ccccc1F)N(Cc1ccco1)C(=O)c1csnn1 (configuration not stated) [N-[1-(2-fluorophenyl)-2-(2-methylbutan-2-ylamino)-2-oxoethyl]-N-(2-furanylmethyl)-4-thiadiazolecarboxamide]
EC50: 15.6 µM

C=CCSc1nnc(C)c(CC=Nc2ccc(Cl)cc2)n1 [4-chloro-N-[(E)-2-(6-methyl-3-prop-2-enylsulfanyl-1,2,4-triazin-5-yl)ethenyl]aniline]
EC50: 4.77 µM

COC(=O)c1ccc(C(=O)C(C#N)c2nc3ccccc3s2)cc1 (configuration not stated) [4-[(2Z)-2-(3H-1,3-benzothiazol-2-ylidene)-2-cyano-1-oxoethyl]benzoic acid methyl ester]
EC50: > 53 µM

COc1cccc(C2C(C(=O)c3ccc(C)o3)C(=O)C(=O)N2CCN2CCOCC2)c1OC (configuration not stated) [SMR000665042]
EC50: > 53 µM

CN1C(=O)C(=CCC=Nc2ccccc2)C(=O)N(C)C1=O
EC50: > 53 µM

Cc1ccc2nc(N3C(=O)C(=O)C(C(=O)c4ccc(C)o4)C3c3cccc(O)c3)sc2c1 (configuration not stated) [4-hydroxy-2-(3-hydroxyphenyl)-1-(6-methyl-1,3-benzothiazol-2-yl)-3-(5-methylfuran-2-carbonyl)-2H-pyrrol-5-one]
EC50: > 53 µM

Cc1cc(=O)oc2c1ccc1oc(C(N=O)c3ccccc3)c(C)c12 (configuration not stated) [4,9-dimethyl-8-(N-oxidanyl-C-phenyl-carbonimidoyl)furo[2,3-h]chromen-2-one]
EC50: > 53 µM

COC(=O)C1=C(C)NC(=O)C1=CNc1ccc(C(C)C)cc1 [methyl (4E)-2-methyl-5-oxidanylidene-4-[[(4-propan-2-ylphenyl)amino]methylidene]-1H-pyrrole-3-carboxylate]
EC50: > 53 µM

Cc1ccc2oc(=O)c(CC(=O)c3ccco3)nc2c1 [(3Z)-3-[2-(2-furanyl)-2-oxoethylidene]-6-methyl-4H-1,4-benzoxazin-2-one]
EC50: 4.74 µM

CC1(C)CC(=O)C2CNc3ccccc3N=C2C1 (configuration not stated)
EC50: > 53 µM

COc1cccc(C(=O)Cc2nc3ccc(C(=O)NCCc4ccc(Cl)cc4)cc3[nH]c2=O)c1
EC50: 5.02 µM

COc1cc(C2c3c(-c4ccccn4)n[nH]c3OC(=N)C2C#N)cc(OC)c1OC (configuration not stated)
EC50: > 53 µM

CCc1ccccc1-n1c(O)c2c(c1O)CC(C)=C(C)C2 [SMR000104383]
EC50: > 53 µM

N#CCSc1nnc(CNc2ccc(F)cc2)o1 [({5-[(4-fluoroanilino)methyl]-1,3,4-oxadiazol-2-yl}sulfanyl)acetonitrile]
EC50: > 53 µM

O=C(Cc1nc2ccccc2n(-c2ccccc2)c1=O)c1ccccc1 [(3Z)-3-phenacylidene-1-phenyl-4H-quinoxalin-2-one]
EC50: 11.6 µM

COc1ccc(/C=N/OCC(=O)NNC2=c3cc(Br)ccc3=NC2=O)cc1 [MLS000587830]
EC50: > 53 µM

COc1cc(/C=C2\CCC(C)C3=C(c4cc(OC)c(OC)c(OC)c4)C(C#N)C(=N)OC32)cc(OC)c1OC (configuration not stated)
EC50: > 53 µM

CN(CCOc1ccc(Cc2sc(=O)[nH]c2O)cc1)c1ccccn1
EC50: > 53 µM

Cc1ccc(S(=O)(=O)N(CC(=O)NNC2=c3ccccc3=NC2=O)c2ccc(C)c(C)c2)cc1 [SMR000207608]
EC50: > 53 µM

COc1ccc(C2=Nc3nnnn3C(c3ccc(C)cc3)C2)cc1 (configuration not stated) [SMR000035317]
EC50: > 53 µM

O=NC1C(=O)N(Cc2c(Cl)cccc2Cl)c2ccccc21 (configuration not stated) [(3Z)-1-[(2,6-dichlorophenyl)methyl]-3-hydroxyimino-2-indolone]
EC50: 4.67 µM

COc1ccc(-n2c(O)cc(-c3ccc([N+](=O)[O-])cc3)c2O)cc1
EC50: > 53 µM

CC(=O)C1C(=O)C(=O)N(c2nccs2)C1c1ccccc1 (configuration not stated) [MLS000533923]
EC50: > 53 µM

CN1c2ccccc2C(=O)C(C(=S)Nc2ccc(Cl)cc2)S1(=O)=O (configuration not stated) [N-(4-chlorophenyl)-4-hydroxy-1-methyl-2,2-dioxo-1,2-dihydro-2lambda~6~,1-benzothiazine-3-carbothioamide]
EC50: > 53 µM

COc1ccc(C2=c3cc(F)ccc3=NC(c3ccco3)=NN2)cc1 [7-fluoranyl-2-(furan-2-yl)-5-(4-methoxyphenyl)-4H-1,3,4-benzotriazepine]
EC50: > 53 µM

O=C(Nn1c(O)csc1=S)c1cccnc1 [MLS000780148]
EC50: > 53 µM

Nc1ccccc1Sc1cc(O)n(-c2ccc3c(c2)OCO3)c1O [SMR000459840]
EC50: > 53 µM

Oc1csc(=S)n1N=Cc1c(F)cccc1Cl [MLS002919802]
EC50: > 53 µM

COC(=O)C1=C(C)N=C(C)C(C(=O)OC)C1/C=C/c1ccccc1 (configuration not stated) [MLS000571366]
EC50: > 53 µM

O=CC(C=Nc1ccccn1)c1nc2cc(Cl)ccc2o1 (configuration not stated) [(Z)-2-(5-chloranyl-1,3-benzoxazol-2-yl)-3-(pyridin-2-ylamino)prop-2-enal]
EC50: > 53 µM

CCOC(=O)C1C(CCc2ccccc2)=NC(=O)NC1c1cccc([N+](=O)[O-])c1 (configuration not stated) [4-(3-nitrophenyl)-2-oxo-6-(2-phenylethyl)-3,4-dihydro-1H-pyrimidine-5-carboxylic acid ethyl ester]
EC50: > 53 µM

COc1ccccc1-n1c(O)c2n(-c3ccc(C)cc3)[nH]c(C(=O)c3ccccc3)c-2c1=O
EC50: 5.27 µM

CCOC(=O)C1=C(C)N=C(SCC(=O)OC)C(C#N)C1c1ccc(C(=O)OC)cc1 (configuration not stated) [MLS000039154]
EC50: > 53 µM

COC(=O)C1=C(C)NC(=O)C1=CNc1ccc(Oc2ccccc2)cc1
EC50: > 53 µM

CCOc1ccc(C2C(C(=O)c3ccc4c(c3)OCCO4)C(=O)C(=O)N2CCCN2CCOCC2)cc1 (configuration not stated) [(4E)-4-[2,3-dihydro-1,4-benzodioxin-6-yl(oxidanyl)methylidene]-5-(4-ethoxyphenyl)-1-(3-morpholin-4-ylpropyl)pyrrolidine-2,3-dione]
EC50: > 53 µM

COc1ccc(-c2ccc(C3c4c(n[nH]c4C)OC(=N)C3C#N)o2)cc1 (configuration not stated) [6-amino-4-[5-(4-methoxyphenyl)-2-furanyl]-3-methyl-2,4-dihydropyrano[2,3-c]pyrazole-5-carbonitrile]
EC50: 10.1 µM

CCCCCCc1cc2cc(C(=O)NC)c(N)oc-2cc1=O [2-azanyl-6-hexyl-N-methyl-7-oxidanylidene-chromene-3-carboxamide]
EC50: 3.06 µM
